Measured values as given in ChEMBL document CHEMBL3046418, “Synthesis and Herbicidal Activity of Sulfonylurea Compounds with Imidazo [1, 2-a] pyridine Moiety” (2001).

Assays:
Format in all cases: functional
[1] = system: Stellaria media; test: Herbicidal activity against Stellaria media at 125 g/ha after 3 weeks by post-emergence greenhouse test
[2] = system: Mutarda arvensis; test: Herbicidal activity against Sinapis arvensis at 125 g/ha after 3 weeks by post-emergence greenhouse test
[3] = system: Matricaria chamomilla; test: Herbicidal activity against Matricaria chamomilla at 125 g/ha after 3 weeks by post-emergence greenhouse test
[4] = system: Bromus tectorum; test: Herbicidal activity against Bromus tectorum at 125 g/ha after 3 weeks by post-emergence greenhouse test
[5] = system: Alopecurus myosuroides; test: Herbicidal activity against Alopecurus myosuroides at 125 g/ha after 3 weeks by post-emergence greenhouse test
[6] = system: Avena fatua; test: Herbicidal activity against Avena fatua at 125 g/ha after 3 weeks by post-emergence greenhouse test
[7] = system: Triticum aestivum; test: Phytotoxic activity against Triticum aestivum (wheat) at 125 g/ha after 3 weeks by post-emergence greenhouse test
[8] = system: Stellaria media; test: Herbicidal activity against Stellaria media at 250 g/ha after 3 weeks by post-emergence greenhouse test
[9] = system: Mutarda arvensis; test: Herbicidal activity against Sinapis arvensis at 250 g/ha after 3 weeks by post-emergence greenhouse test
[10] = system: Matricaria chamomilla; test: Herbicidal activity against Matricaria chamomilla at 250 g/ha after 3 weeks by post-emergence greenhouse test
[11] = system: Bromus tectorum; test: Herbicidal activity against Bromus tectorum at 250 g/ha after 3 weeks by post-emergence greenhouse test
[12] = system: Alopecurus myosuroides; test: Herbicidal activity against Alopecurus myosuroides at 250 g/ha after 3 weeks by post-emergence greenhouse test
[13] = system: Avena fatua; test: Herbicidal activity against Avena fatua at 250 g/ha after 3 weeks by post-emergence greenhouse test
[14] = system: Triticum aestivum; test: Phytotoxic activity against Triticum aestivum (wheat) at 250 g/ha after 3 weeks by post-emergence greenhouse test
[15] = system: Stellaria media; test: Herbicidal activity against Stellaria media at 500 g/ha after 3 weeks by post-emergence greenhouse test
[16] = system: Mutarda arvensis; test: Herbicidal activity against Sinapis arvensis at 500 g/ha after 3 weeks by post-emergence greenhouse test
[17] = system: Bromus tectorum; test: Herbicidal activity against Bromus tectorum at 500 g/ha after 3 weeks by post-emergence greenhouse test
[18] = system: Matricaria chamomilla; test: Herbicidal activity against Matricaria chamomilla at 500 g/ha after 3 weeks by post-emergence greenhouse test
[19] = system: Alopecurus myosuroides; test: Herbicidal activity against Alopecurus myosuroides at 500 g/ha after 3 weeks by post-emergence greenhouse test
[20] = system: Avena fatua; test: Herbicidal activity against Avena fatua at 500 g/ha after 3 weeks by post-emergence greenhouse test
[21] = system: Triticum aestivum; test: Phytotoxic activity against Triticum aestivum (wheat) at 500 g/ha after 3 weeks by post-emergence greenhouse test
[22] = system: Triticum aestivum; test: Phytotoxic activity against Triticum aestivum (wheat) at 100 g/ha after 3 weeks by post-emergence greenhouse test
[23] = system: Chenopodium album; test: Herbicidal activity against Chenopodium album at 400 g/ha after 3 weeks by post-emergence greenhouse test
[24] = system: Stellaria media; test: Herbicidal activity against Stellaria media at 400 g/ha after 3 weeks by post-emergence greenhouse test
[25] = system: Mutarda arvensis; test: Herbicidal activity against Sinapis arvensis at 400 g/ha after 3 weeks by post-emergence greenhouse test
[26] = system: Matricaria chamomilla; test: Herbicidal activity against Matricaria chamomilla at 400 g/ha after 3 weeks by post-emergence greenhouse test
[27] = system: Bromus tectorum; test: Herbicidal activity against Bromus tectorum at 400 g/ha after 3 weeks by post-emergence greenhouse test
[28] = system: Alopecurus myosuroides; test: Herbicidal activity against Alopecurus myosuroides at 400 g/ha after 3 weeks by post-emergence greenhouse test
[29] = system: Chenopodium album; test: Herbicidal activity against Chenopodium album at 25 g/ha after 3 weeks by post-emergence greenhouse test
[30] = system: Stellaria media; test: Herbicidal activity against Stellaria media at 25 g/ha after 3 weeks by post-emergence greenhouse test
[31] = system: Mutarda arvensis; test: Herbicidal activity against Sinapis arvensis at 25 g/ha after 3 weeks by post-emergence greenhouse test
[32] = system: Matricaria chamomilla; test: Herbicidal activity against Matricaria chamomilla at 25 g/ha after 3 weeks by post-emergence greenhouse test
[33] = system: Bromus tectorum; test: Herbicidal activity against Bromus tectorum at 25 g/ha after 3 weeks by post-emergence greenhouse test
[34] = system: Alopecurus myosuroides; test: Herbicidal activity against Alopecurus myosuroides at 25 g/ha after 3 weeks by post-emergence greenhouse test
[35] = system: Triticum aestivum; test: Phytotoxic activity against Triticum aestivum (wheat) at 25 g/ha after 3 weeks by post-emergence greenhouse test
[36] = system: Avena fatua; test: Herbicidal activity against Avena fatua at 25 g/ha after 3 weeks by post-emergence greenhouse test
[37] = system: Chenopodium album; test: Herbicidal activity against Chenopodium album at 100 g/ha after 3 weeks by post-emergence greenhouse test
[38] = system: Stellaria media; test: Herbicidal activity against Stellaria media at 100 g/ha after 3 weeks by post-emergence greenhouse test
[39] = system: Mutarda arvensis; test: Herbicidal activity against Sinapis arvensis at 100 g/ha after 3 weeks by post-emergence greenhouse test
[40] = system: Matricaria chamomilla; test: Herbicidal activity against Matricaria chamomilla at 100 g/ha after 3 weeks by post-emergence greenhouse test
[41] = system: Bromus tectorum; test: Herbicidal activity against Bromus tectorum at 100 g/ha after 3 weeks by post-emergence greenhouse test
[42] = system: Alopecurus myosuroides; test: Herbicidal activity against Alopecurus myosuroides at 100 g/ha after 3 weeks by post-emergence greenhouse test
[43] = system: Avena fatua; test: Herbicidal activity against Avena fatua at 100 g/ha after 3 weeks by post-emergence greenhouse test
[44] = system: Avena fatua; test: Herbicidal activity against Avena fatua at 400 g/ha after 3 weeks by post-emergence greenhouse test
[45] = system: Triticum aestivum; test: Phytotoxic activity against Triticum aestivum (wheat) at 400 g/ha after 3 weeks by post-emergence greenhouse test
[46] = system: Chenopodium album; test: Herbicidal activity against Chenopodium album after 3 weeks by post-emergence greenhouse test; design: concentration or dose not given beside the values
[47] = system: Stellaria media; test: Herbicidal activity against Stellaria media after 3 weeks by post-emergence greenhouse test; design: concentration or dose not given beside the values
[48] = system: Mutarda arvensis; test: Herbicidal activity against Sinapis arvensis after 3 weeks by post-emergence greenhouse test; design: concentration or dose not given beside the values
[49] = system: Matricaria chamomilla; test: Herbicidal activity against Matricaria chamomilla after 3 weeks by post-emergence greenhouse test; design: concentration or dose not given beside the values
[50] = system: Bromus tectorum; test: Herbicidal activity against Bromus tectorum after 3 weeks by post-emergence greenhouse test; design: concentration or dose not given beside the values
[51] = system: Avena fatua; test: Herbicidal activity against Avena fatua after 3 weeks by post-emergence greenhouse test; design: concentration or dose not given beside the values
[52] = system: Alopecurus myosuroides; test: Herbicidal activity against Alopecurus myosuroides after 3 weeks by post-emergence greenhouse test; design: concentration or dose not given beside the values
[53] = system: Triticum aestivum; test: Phytotoxic activity against Triticum aestivum (wheat) after 3 weeks by post-emergence greenhouse test; design: concentration or dose not given beside the values
[54] = system: Chenopodium album; test: Herbicidal activity against Chenopodium album after 4 weeks by pre-emergence greenhouse test; design: concentration or dose not given beside the values
[55] = system: Stellaria media; test: Herbicidal activity against Stellaria media after 4 weeks by pre-emergence greenhouse test; design: concentration or dose not given beside the values
[56] = system: Matricaria chamomilla; test: Herbicidal activity against Matricaria chamomilla after 4 weeks by pre-emergence greenhouse test; design: concentration or dose not given beside the values
[57] = system: Mutarda arvensis; test: Herbicidal activity against Sinapis arvensis after 4 weeks by pre-emergence greenhouse test; design: concentration or dose not given beside the values
[58] = system: Bromus tectorum; test: Herbicidal activity against Bromus tectorum after 4 weeks by pre-emergence greenhouse test; design: concentration or dose not given beside the values
[59] = system: Alopecurus myosuroides; test: Herbicidal activity against Alopecurus myosuroides after 4 weeks by pre-emergence greenhouse test; design: concentration or dose not given beside the values
[60] = system: Avena fatua; test: Herbicidal activity against Avena fatua after 4 weeks by pre-emergence greenhouse test; design: concentration or dose not given beside the values
[61] = system: Triticum aestivum; test: Phytotoxic activity against Triticum aestivum (wheat) after 4 weeks by pre-emergence greenhouse test

## CSc1nnc(C(C)(C)C)c(=O)n1N [METRIBUZIN]
[1]
  Activity: 88%
[2]
  Activity: 100%
[3]
  Activity: 51%
[4]
  Activity: 1%
[5]
  Activity: 51%
[6]
  Activity: 0%
[7]
  Phytotoxicity: 0%
[8]
  Activity: 100%
[9]
  Activity: 100%
[10]
  Activity: 100%
[11]
  Activity: 1%
[12]
  Activity: 51%
[13]
  Activity: 1%
[14]
  Phytotoxicity: 1%
[15]
  Activity: 100%
[16]
  Activity: 100%
[17]
  Activity: 88%
[18]
  Activity: 100%
[19]
  Activity: 100%
[20]
  Activity: 76%
[21]
  Phytotoxicity: 1%

## CCS(=O)(=O)c1nc2ccccn2c1S(=O)(=O)NC(=O)Nc1nc(OC)cc(OC)n1 [SULFOSULFURON]
[22]
  Phytotoxicity: 0%
[23]
  Activity: 51%
[24]
  Activity: 88%
[25]
  Activity: 88%
[26]
  Activity: 88%
[27]
  Activity: 88%
[28]
  Activity: 88%
[29]
  Activity: 1%
[30]
  Activity: 88%
[31]
  Activity: 88%
[32]
  Activity: 88%
[33]
  Activity: 88%
[34]
  Activity: 88%
[35]
  Phytotoxicity: 0%
[36]
  Activity: 88%
[37]
  Activity: 1%
[38]
  Activity: 88%
[39]
  Activity: 88%
[40]
  Activity: 88%
[41]
  Activity: 88%
[42]
  Activity: 88%
[43]
  Activity: 88%
[44]
  Activity: 0%
[45]
  Phytotoxicity: 0%
[46]
  Activity: 51%
[47]
  Activity: 88%
[48]
  Activity: 88%
[49]
  Activity: 88%
[50]
  Activity: 88%
[51]
  Activity: 88%
[52]
  Activity: 88%
[53]
  Activity: 0%
[54]
  Activity: 88%
[55]
  Activity: 88%
[56]
  Activity: 88%
[57]
  Activity: 88%
[58]
  Activity: 88%
[59]
  Activity: 88%
[60]
  Activity: 51%
[61]
  Phytotoxicity: 0%
